Source: patent US20200115698A1, “PHARMACEUTICAL COMBINATION FOR TREATMENT OF FABRY DISEASE AND USE THEREOF” (MEIJI PHARMACEUTICAL UNIVERSITY, priority 2017, published 2020)

Legend:
[1] = system: cultivated fibroblast derived from a Fabry disease model mouse; test: Simultaneous addition of α-NAGA mutant and DGJ to cultivated fibroblast derived from Fabry disease model mouse; type: cell-based; conditions: 1 μg/mL α-NAGA mutant plus 0-500 μM DGJ, 24 hours; FIG. 5
Experimental: A cultivated fibroblast derived from a Fabry disease model mouse was cultured at 37° C. under a 5% carbon dioxide environment with use of a DMEM medium to which a 10% fetal calf serum and an antibiotic substance had been added. First, concentration dependence of DGJ with respect to uptake efficiency of an α-NAGA mutant was analyzed. The cells were seeded to a 12-well plate at 1.0×10^5 cells/well. The medium was exchanged with an F-10 medium that contained 1 μg/mL of an α-NAGA mutant, any of concentrations (0, 1, 10, 100, and 500 μM) of DGJ, a 10% fetal calf serum, and an antibiotic substance, and cultivation was carried out for 24 hours. […] The homogenate thus obtained was subjected to centrifugal separation under conditions of 4° C. and 12,000 rpm, and the obtained supernatant liquid was used as samples for enzyme activity measurement, protein quantification, and Western blotting. […] Then, released 4-methylumbelliferone was measured at an excitation wavelength of 355 nm and at a fluorescence wavelength of 460 nm with use of Wallac 1420 ARVO MX Multilabel Counter (Perkin Elmer, Waltham, Mass.). Protein quantification was carried out with Micro BCA method (Micro BCA (trademark) Protein Assay Reagent Kit: Pierce) while using a concentration of bovine serum albumin (Albumin standard: Pierce Biotechnology, Inc., Rockford, Ill.) as a standard. […]

[2] = system: cultivated fibroblast derived from a patient of Fabry disease; test: Simultaneous addition of α-NAGA mutant and DGJ to cultivated fibroblast derived from patient of Fabry disease; type: cell-based, human
Experimental: A cultivated fibroblast derived from a patient of Fabry disease was cultured at 37° C. under a 5% carbon dioxide environment with use of an F-10 medium to which a 10% fetal calf serum and an antibiotic substance had been added. First, concentration dependence of DGJ with respect to uptake efficiency of an α-NAGA mutant was analyzed. The cells were seeded to a 12-well plate at 1.0×10^5 cells/well. Then, the medium was exchanged with a medium containing 1 μg/mL of an α-NAGA mutant and any of concentrations (0, 1, 10, and 100 μM) of DGJ, and cultivation was carried out for 24 hours. The cells were cleaned three times with PBS, then treated with use of trypsin, and then collected. 20 mM MES (pH 6.0) containing Complete Mini (Roche) was added to the collected cells, and the cells were then subjected to an ultrasonic treatment. The homogenate thus obtained was subjected to centrifugal separation under conditions of 4° C. and 12,000 rpm, and the obtained supernatant liquid was used as samples for enzyme activity measurement, protein quantification, and Western blotting.
Next, in order to confirm time dependence, 1 μg/mL of an α-NAGA mutant and 10 μM of DGJ were added to the cells, and cultivation was carried out for 24 hours, 48 hours, and 72 hours. Then, enzyme activity measurement, protein quantification, and Western blotting were carried out. […]

OCC1NCC(O)C(O)C1O [DGJ, (2R,3S,4R,5S)-2-(hydroxymethyl)piperdine-3,4,5-triol]
α-NAGA mutant enzyme activity in cells [1]: enzyme activity was improved | α-NAGA mutant enzyme activity in cells ([2]; 1 μg/mL α-NAGA mutant plus 0-100 μM DGJ 24 hours, or 10 μM DGJ 24-72 hours, FIG. 6(a), 7(a)): enzyme activity was improved | amount of protein of the α-NAGA mutant taken in a cell (Western blotting) ([2]; simultaneous addition of DGJ versus no DGJ, FIG. 6(b), 7(b)): confirmed to be increased
